Results reported in patent US7084136B2, “Drug composition antagonistic to both PGD2/TXA2 receptors” (Shionogi & Co., Ltd., priority 2000, dated 2006).
Like-named read-outs stand apart in the source and are kept apart here.

Legend:
PGD2 receptor [1] = biological target: T1, PGD2 receptor (Homo sapiens, UniProt Q13258); assay: Binding activity to PGD2 receptor ([3H]PGD2, human platelet membrane fraction)
T1 construct: A suspension adjusted to contain the platelets at a final concentration of 5×10^8/ml was warmed at 37° C; endogenous in cells; host or cells: washed human platelets from a healthy volunteer
T1 sequence (Q13258 1-359): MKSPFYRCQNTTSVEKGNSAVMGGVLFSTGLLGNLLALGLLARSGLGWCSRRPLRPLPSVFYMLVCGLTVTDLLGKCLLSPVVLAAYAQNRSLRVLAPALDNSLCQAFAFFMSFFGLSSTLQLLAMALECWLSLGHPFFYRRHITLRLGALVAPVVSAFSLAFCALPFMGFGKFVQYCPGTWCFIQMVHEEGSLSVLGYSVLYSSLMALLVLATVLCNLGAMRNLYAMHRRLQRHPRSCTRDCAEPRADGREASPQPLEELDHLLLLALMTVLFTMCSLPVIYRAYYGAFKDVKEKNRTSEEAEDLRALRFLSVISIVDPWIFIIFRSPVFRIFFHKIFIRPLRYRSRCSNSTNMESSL
Description: Experiment 1 Binding Activity to PGD2 Receptor
(§1) (1) Preparation of Human Platelet Membrane Fraction
Blood was collected using a plastic syringe containing 3.8% sodium citrate from the vein of healthy volunteers (adult male and female), then put into a plastic test tube and mixed by slow-reversion. The sample was then centrifuged at 1800 rpm, for 10 min at room temperature, and the supernatant containing PRP (platelet-rich plasma) was collected. The PRP was re-centrifuged at 2300 rpm, for 22 min at room temperature to obtain platelets. The platelets were homogenized using a homogenizer (Ultra-Turrax) followed by centrifugation 3 times at 20,000 rpm, 10 min at 4° C. to obtain a platelet membrane fraction. After protein determination, the membrane fraction was adjusted to 2 mg/ml and preserved in a refrigerator at −80° C. until using for the binding test.
(2) Binding to PGD2 Receptor
To a binding-reaction solution (50 mM Tris/HCl, pH 7.4, 5 mM MgCl2) (0.2 ml) were added the human platelet membrane fraction (0.1 mg) and 5 nM [^3H]PGD2 (115 Ci/mmol), and the mixture was reacted at 4° C. for 90 min. After the reaction, the mixture was filtered through a glass fiber filter paper and washed several times with cooled physiological saline, then the radioactivity retained on the filter paper was measured. The specific-binding ratio was calculated by subtracting the non-specific binding ratio which is the radioactivity similarly measured in the presence of 10 μM PGD2 from the total binding. The inhibitory activity of each compound was expressed as the concentration required for 50% inhibition (IC50), which was determined by depicting a substitution curve by plotting the binding ratio (%) in the presence of each compound, where the binding ratio in the absence of a test compound is 100%.

TXA2 receptor = biological target: T2, TXA2 receptor (Homo sapiens, UniProt P21731); assay: Binding activity to TXA2 receptor ([3H](+)-S-145 sodium salt, human platelet membrane fraction)
T2 construct: The human platelet membrane fraction was prepared in accordance with Experiment 1 (1); from tissue; host or cells: human platelet membrane fraction from blood of healthy volunteers
T2 sequence (P21731 1-343): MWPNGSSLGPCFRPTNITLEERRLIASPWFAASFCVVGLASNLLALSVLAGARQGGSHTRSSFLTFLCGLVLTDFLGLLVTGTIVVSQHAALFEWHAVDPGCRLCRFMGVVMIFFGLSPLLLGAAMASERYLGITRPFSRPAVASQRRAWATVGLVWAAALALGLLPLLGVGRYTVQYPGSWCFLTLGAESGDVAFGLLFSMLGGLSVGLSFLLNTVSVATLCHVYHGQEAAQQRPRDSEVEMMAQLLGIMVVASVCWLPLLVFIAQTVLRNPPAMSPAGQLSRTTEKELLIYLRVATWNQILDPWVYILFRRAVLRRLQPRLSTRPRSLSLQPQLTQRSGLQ
Description: Experiment 2 Binding Activity to TXA2 Receptor
as §1
The human platelet membrane fraction was prepared in accordance with Experiment 1 (1).
(2) Binding to TXA2 Receptor
To a binding-reaction solution (50 mM Tris/HCl, pH 7.4, 10 mM MgCl2) (0.2 ml) were added the human platelet membrane fraction (0.05 mg) and 2 nM Sodium [^3H](+)-(5Z)-7-[3-endo-[(phenylsulfonyl)amino]bicyclo[2.2.1]hept-2-exo-yl]heptenoate (Japanese Patent Publication (Kokoku) No.79060/1993, hereinafter referred to as (+)-S-145 sodium salt) (26.4 Ci/mmol), and the mixture was reacted at room temperature for 90 min. After the reaction, the resultant mixture was filtered through a glass fiber filter paper and washed several times with cooled physiological saline, then the radioactivity retained on the filter paper was measured. The specific-binding ratio was calculated by subtracting the non-specific binding ratio (the radio activity similarly determined in the presence of 10 μM (+)-S-145 sodium salt) from the total binding. The inhibitory activity of each compound was expressed as the concentration required for 50% inhibition (IC50), which was determined by depicting a substitution curve by plotting the binding ratio (%) in the presence of each compound, where the binding ratio in the absence of a test compound is 100%.

PGD2 receptor [2] = biological target: T1, PGD2 receptor; assay: Antagonistic activity against PGD2 receptor using human platelet (inhibition of PGD2-induced cAMP increase); format: cell-based
Description: Experiment 3 Evaluation of Antagonistic Activity Against PGD2 Receptor
Receptor Using Human Platelet
Peripheral blood was collected from a healthy volunteer using a syringe in which 1/9 volume of a citric acid/dextrose solution was previously added. The sample was subjected to centrifugation at 1200 rpm for 10 min to obtain the supernatant (PRP: platelet rich plasma). The resultant PRP was washed 3 times with a washing buffer and the number of platelets was counted with a micro cell counter. A suspension adjusted to contain the platelets at a final concentration of 5×10^8/ml was warmed at 37° C., then subjected to the pre-treatment with 3-isobutyl-1-methylxanthine (0.5 mM) for 5 min. To the suspension was added a test compound diluted at various concentration, and 10 minutes later, 0.1 μM PGD2 was added to induce the reaction 2 minutes later, hydrochloric acid was added to terminate the reaction. The platelet was destroyed with an ultrasonic homogenizer. After centrifugation, the cAMP in the supernatant was determined by radioimmunoassay. PGD2 receptor antagonism of a drug was evaluated as follows: the inhibition rate regarding cAMP increased by the addition of PGD2 was determined at each concentration, and the concentration of the drug required for 50% inhibition (IC50) was calculated.

[3] = human platelet membrane fraction, 2 nM [3H](+)-S-145 sodium salt, read-out: Binding activity to TXA2 receptor in human platelet membrane fraction IC50
[4] = human platelet, 0.1 μM PGD2, read-out: Inhibitory activity for the increase of cAMP caused by PGD2 in human platelet IC50
[5] = human platelet membrane fraction, read-out: Binding activity to PGD2 receptor in human platelet membrane fraction IC50

Structure (SMILES) | IC50 (PGD2 receptor [1]; comparative experiment in accordance with Experiment 1, read-out: Experiment 1 Antagonistic activity against PGD2 receptor IC50) | IC50 (TXA2 receptor; comparative experiment in accordance with Experiment 2, read-out: Experiment 2 Antagonistic activity against TXA2 receptor IC50) | IC50 (PGD2 receptor [2]; comparative experiment in accordance with Experiment 3, read-out: Experiment 3 Antagonistic activity against PGD2 receptor IC50) | IC50 (TXA2 receptor; [3]) | IC50 (PGD2 receptor [2]; [4]) | IC50 (PGD2 receptor [1]; [5])
CC1(C)[C@H]2C[C@H](C/C=C\CCCC(=O)O)[C@@H](NC(=O)c3csc4ccccc34)[C@@H]1C2 [B-1, reference compound] | 22 nM | 370 nM | 30 nM | – | – | –
O=C(O)CCCC[C@H]1[C@@H]2CC[C@@H](C2)[C@@H]1NC(=O)c1ccc(Sc2cccs2)s1 [I-5A-59a] | – | – | – | 11 nM | 79 nM | –
O=C(O)CCCCCC[C@H]1[C@@H]2CC[C@@H](C2)[C@@H]1NC(=O)c1ccc(Sc2cccs2)s1 [I-7A-59a] | – | – | – | 9.8 nM | 12 nM | –
O=C(O)COCCCC[C@H]1[C@@H]2CC[C@@H](C2)[C@@H]1NC(=O)c1ccc(Sc2cccs2)s1 [I-7M-59a] | – | – | – | 40 nM | 24 nM | –
O=C(O)CCC/C=C\C[C@H]1[C@@H]2CC[C@@H](C2)[C@@H]1NC(=O)c1ccc(S(=O)(=O)n2cccc2)cc1 [I-10] | – | – | – | 92 nM | 1.8 nM | 1.6 nM
O=C(O)CCC/C=C\C[C@H]1[C@@H]2CC[C@@H](C2)[C@@H]1NC(=O)c1ccc(Cc2ccccc2)s1 [I-31] | – | – | – | 130 nM | 5.7 nM | 8.2 nM
O=C(O)CCC/C=C\C[C@H]1[C@@H]2CC[C@@H](C2)[C@@H]1NC(=O)c1ccc(S(=O)(=O)c2cccs2)s1 [I-47] | – | – | – | 6.2 nM | 7 nM | 4.1 nM
O=C(O)CCC/C=C\C[C@H]1[C@@H]2CC[C@@H](C2)[C@@H]1NC(=O)c1ccc(Sc2cccs2)s1 [I-59] | – | – | – | 16 nM | 4.6 nM | 0.41 nM
O=C(O)CCC/C=C\C[C@H]1[C@@H]2CC[C@@H](C2)[C@@H]1NC(=O)c1ccc(SCc2cccs2)cc1 [I-66] | – | – | – | 34 nM | 44 nM | 4.6 nM
COc1ccccc1Cc1ccc(C(=O)N[C@H]2[C@H]3CC[C@H](C3)[C@@H]2CCCC/C=C/C(=O)O)s1 [I-71-126a] | – | – | – | 61 nM | 21 nM | –
Cc1ccc(C)n1S(=O)(=O)c1ccc(C(=O)N[C@H]2[C@H]3CC[C@H](C3)[C@@H]2CCCC/C=C/C(=O)O)s1 [I-71-270a] | – | – | – | 0.9 nM | 26 nM | –
O=C(O)CCC/C=C\C[C@H]1[C@@H]2CC[C@@H](C2)[C@@H]1NC(=O)c1ccc(Sc2ccsc2)s1 [I-79] | – | – | – | 15 nM | 24 nM | 0.42 nM
O=C(O)CCC/C=C\C[C@H]1[C@@H]2CC[C@@H](C2)[C@@H]1NC(=O)c1ccc(S(=O)(=O)c2ccsc2)s1 [I-80] | – | – | – | 5.2 nM | 39 nM | 6.6 nM
Cc1ccc(S(=O)(=O)c2ccc(C(=O)N[C@H]3[C@H]4CC[C@H](C4)[C@@H]3C/C=C\CCCC(=O)O)s2)s1 [I-82] | – | – | – | 1.8 nM | 53 nM | 32 nM
O=C(O)CCC/C=C\C[C@H]1[C@@H]2CC[C@@H](C2)[C@@H]1NC(=O)c1cc(Cc2cccs2)cs1 [I-88] | – | – | – | 78 nM | 4.7 nM | 7.6 nM
O=C(O)CCC/C=C\C[C@H]1[C@@H]2CC[C@@H](C2)[C@@H]1NC(=O)c1ccc(Cc2cccs2)s1 [I-93] | – | – | – | 72 nM | 8.4 nM | 7 nM
O=C(O)CCC/C=C\C[C@H]1[C@@H]2CC[C@@H](C2)[C@@H]1NC(=O)c1ccn(S(=O)(=O)c2cccs2)c1 [I-94] | – | – | – | 83 nM | 10 nM | 1 nM
O=C(O)CCC/C=C\C[C@H]1[C@@H]2CC[C@@H](C2)[C@@H]1NC(=O)c1ccc(CSc2cccs2)s1 [I-104] | – | – | – | 39 nM | 1.6 nM | 0.1 nM
O=C(O)CCC/C=C\C[C@H]1[C@@H]2CC[C@@H](C2)[C@@H]1NC(=O)c1ccc(SCc2cccs2)s1 [I-106] | – | – | – | 13 nM | 9.3 nM | 13 nM
O=C(O)CCC/C=C\C[C@H]1[C@@H]2CC[C@@H](C2)[C@@H]1NC(=O)c1ccc(S(=O)(=O)c2cccc(O)c2)s1 [I-117] | – | – | – | 3.8 nM | 47 nM | 9.1 nM
Cc1ccc(Cc2ccc(C(=O)N[C@H]3[C@H]4CC[C@H](C4)[C@@H]3C/C=C\CCCC(=O)O)s2)c(C)c1 [I-128] | – | – | – | 48 nM | 10 nM | 20 nM
